Measured values taken from PubChem BioAssay AID843 (The Scripps Research Institute Molecular Screening Center, 2007).
Calls of active or inactive are those of the source. The rule behind the calls is not given here.

System: CRE-bla reporter cells, beta-lactamase FRET, activation
Assay: CRE beta-lactamase reporter activation – cell-based, beta-lactamase FRET, counter-screen for S1P2 agonist project, dose response (AID 843)

Compound	EC50
O=C1SC(c2ccccc2)=N/C1=C/c1ccco1	> 50 µM (inactive)
Nc1c(C(=O)NCCCc2ccccc2)c2nc3ccccc3nc2n1Cc1cccs1	5.9 µM
CCOc1cccc(OCCCCn2ccnc2)c1	> 50 µM (inactive)
c1ccc(OCCSc2nnnn2-c2ccccc2)cc1	> 50 µM (inactive)
CCC(C)NC(=O)c1c(N)n(Cc2ccc3c(c2)OCO3)c2nc3ccccc3nc12 (configuration not stated)	5.7 µM
NC(=O)c1ccc(NC(=O)C2CCCO2)cc1 (configuration not stated)	> 50 µM (inactive)
Cc1cccn2c(=O)c3cc(C(=O)NCCc4ccccc4)c(=N)n(CCCn4ccnc4)c3nc12	10.2 µM (inactive)
O=C(NCc1ccco1)c1cc2ccc(O)cc2oc1=O	12.7 µM (inactive)
COc1ccc2cc(S(=O)(=O)NCCCN3CCOCC3)ccc2c1	> 50 µM (inactive)
Cc1cccc2cc(C(c3nnnn3CC3CCCO3)N3CCc4ccccc4C3)c(=O)[nH]c12 (configuration not stated)	> 50 µM (inactive)
CCN(CC)c1ccc(NC(=O)Nc2ccccc2C(F)(F)F)cc1	> 50 µM (inactive)
CC(C)n1c(=N)c(C(=O)NCCc2ccccc2)cc2c(=O)n3ccccc3nc21	23.6 µM (inactive)
O=c1c(-c2nc3ccccc3s2)cccn1Cc1ccc(Cl)cc1	3.43 µM
COc1ccccc1CNC(=O)c1c(N)n(CCCN2CCOCC2)c2nc3ccccc3nc12	22.9 µM (inactive)
Cc1ccc(CNC(=O)CCNC(=O)c2ccco2)cc1	> 50 µM (inactive)
C(=C\c1ccccc1)/CSc1nnc(-c2ccccc2)n1Cc1ccco1	> 50 µM (inactive)
c1ccc(-c2nc3ccccn3c2NCc2ccc3c(c2)OCO3)cc1	> 50 µM (inactive)
Clc1ccc(-c2ccc(/C=N/Nc3cc(N4CCOCC4)nc(N4CCOCC4)n3)o2)cc1	14.5 µM (inactive)
CC(C)CNC(=O)c1c(N)n(Cc2ccc3c(c2)OCO3)c2nc3ccccc3nc12	5.66 µM
Cc1cc(-c2nnc(SCC(=O)NC3CCCC3)o2)no1	> 50 µM (inactive)
COc1cc2c(cc1OC)C1=C(C#N)CCC(=NC(=O)c3ccc(Cl)cc3)N1CC2	1.64 µM

Compound	EC50
O=S(=O)(c1ccc(N2CCC(c3ccc(Cl)cc3)=N2)cc1)N(CCO)CCO	9.11 µM
C=CCn1c(N)cc(=O)nc1SCC(=O)Nc1ccccc1	> 50 µM (inactive)
CCOCCCNc1nc(=S)[nH]c2cc(OC)c(OC)cc12	> 50 µM (inactive)
Cc1ccc(Cn2cccc(-c3nc4ccccc4s3)c2=O)cc1	24 µM (inactive)
Cc1cc(C)c(S(=O)(=O)Nc2ccc(O)cc2)cc1C	> 50 µM (inactive)
N#CCN1CCN(CC(=O)Nc2cccc3ccccc23)CC1	> 50 µM (inactive)
CCOC(=O)CN(C(=O)CSc1nnc(COc2ccc(OC)cc2)n1C)c1ccccc1	> 50 µM (inactive)
CCC(C)n1c(NC(=O)c2ccccc2)c(C#N)c2nc3ccccc3nc21 (configuration not stated)	2.95 µM
Cc1cccc(C(=O)NC2CC3CCCC(C2)N3C(=O)NC2CCCCC2)c1 (configuration not stated)	> 50 µM (inactive)
Cc1cc(Br)ccc1OCCCCNCCO	> 50 µM (inactive)
O=S(=O)(Cc1ccc(Cl)cc1)NCC1CCCO1 (configuration not stated)	> 50 µM (inactive)
Cc1cc(C)n2cc(CSc3nnnn3-c3ccc(Cl)cc3)nc2n1	> 50 µM (inactive)
CCC(=O)c1cc2c(C)cc(=O)oc2c(C)c1O	> 50 µM (inactive)
Oc1cccc(C(=S)N2CCN(Cc3ccccc3)CC2)c1	> 50 µM (inactive)
CCOC(=O)c1cc2ccc(OC(=O)c3ccco3)cc2oc1=O	8.74 µM
Cc1cc(C(=O)CN2C(=O)CCC2=O)c(C)n1Cc1ccccc1	> 50 µM (inactive)
COc1cccc(CNC(=O)CN(c2cc(C)cc(C)c2)S(=O)(=O)c2c(C)noc2C)c1	> 50 µM (inactive)
CCCc1nn(-c2cc(Cl)ccc2OC)c2c1C(=O)CCC2	> 50 µM (inactive)
COc1ccc(Cn2c(-c3ccco3)nc3oc4cc(OC)ccc4c(=O)c3c2=O)cc1	> 50 µM (inactive)
Cc1ccc(C2CC(=O)c3cnc(N4CCc5ccccc5C4)nc3C2)cc1 (configuration not stated)	> 50 µM (inactive)
O=c1[nH]c(-c2cccs2)nc2ccccc12	> 50 µM (inactive)

Compound	EC50
NS(=O)(=O)c1ccc(N2N=C(c3ccc(Br)cc3)CC2c2ccc(F)cc2)cc1 (configuration not stated)	2.69 µM
COc1cc2c(cc1OC)C1=C(C#N)CCC(=O)N1CC2	2.96 µM
O=C1CCCC(O)=C1C=NCCc1ccccc1	> 50 µM (inactive)
O=c1c(-c2nc3ccccc3s2)cccn1Cc1ccc(Cl)c(Cl)c1	3.29 µM
CCOC(=O)c1cc2ccc(OC)c(OC)c2c(=O)s1	> 50 µM (inactive)
O=C(Nc1ccccn1)Nc1cccs1	> 50 µM (inactive)
COCCNC(=O)CN1CCN(C(c2ccccc2)c2ccccc2)CC1	> 50 µM (inactive)
Clc1ccc(N2N=C(c3cccs3)CC2c2ccco2)cc1 (configuration not stated)	3.35 µM
COC(=O)c1cn[nH]c1NC(=S)Nc1ccccc1C	> 50 µM (inactive)
CCOC(=O)c1c(C)n(C)c2ccc(OCC(O)Cn3nc(C)cc3C)cc12 (configuration not stated)	> 50 µM (inactive)
CC(C)CCNC(=O)c1c(N)n(Cc2ccc3c(c2)OCO3)c2nc3ccccc3nc12	6.45 µM
Cc1ccccc1-n1c(=O)c(C#N)cc2c(=O)n3ccccc3nc21	26.3 µM (inactive)
COc1ccc(C(c2c[nH]c3ccccc23)c2c[nH]c3ccccc23)cc1O	> 50 µM (inactive)
Clc1ccc2nc(N3CCNCC3)nc(-c3ccccc3)c2c1	9.98 µM
O=C(CCC(=O)N1CCc2ccccc21)Nc1ccccc1	> 50 µM (inactive)
O=C(NCC1(c2ccccc2)CCCC1)C(=O)N1CCOCC1	> 50 µM (inactive)
O=C(Cc1c[nH]c2ccccc12)Nc1nc2ccccc2[nH]1	> 50 µM (inactive)
CS(=O)(=O)NCc1nnc(SCC(=O)NC2CCCCC2)n1-c1ccc(F)cc1	> 50 µM (inactive)
CN(C)CCCNS(=O)(=O)c1ccc(N2CCC(c3ccc(Cl)cc3)=N2)cc1	1.03 µM
O=c1c(-c2nc3ccccc3s2)cccn1Cc1ccccc1	6.82 µM
